Measured values published in the supplement of paper PMC11451515.

Test system: P12-Ichikawa
Test: cell viability relative to DMSO control; higher = less cytotoxic
Settings: 48 h
How it was run: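 In 1536-well plates, 5 μl of leukemia cells were seeded per well: 500 cells/well for NOMO1 or SEM and 1000 cells/well for P12-Ichikawa. Each line had first been adapted for at least four passages in each medium. Library compounds in DMSO were pin-dosed at 11 threefold concentrations between 47 μM and 0.79 nM, and CellTiter-Glo One luminescence was read after 48 h at 37°C. Viability is a per-plate percentage relative to DMSO wells, with cell-free wells as background.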

[1] = HPLM + 10% dialyzed FBS, 0.000781 µM
[2] = HPLM + 10% dialyzed FBS, 0.00234 µM
[3] = HPLM + 10% dialyzed FBS, 0.00702 µM
[4] = HPLM + 10% dialyzed FBS, 0.0211 µM
[5] = HPLM + 10% dialyzed FBS, 0.0632 µM
[6] = HPLM + 10% dialyzed FBS, 0.19 µM
[7] = HPLM + 10% dialyzed FBS, 0.569 µM
[8] = HPLM + 10% dialyzed FBS, 1.71 µM
[9] = HPLM + 10% dialyzed FBS, 5.12 µM
[10] = HPLM + 10% dialyzed FBS, 15.4 µM
[11] = HPLM + 10% dialyzed FBS, 46.1 µM
[12] = RPMI 5 mM glucose + 10% FBS, 0.000781 µM
[13] = RPMI 5 mM glucose + 10% FBS, 0.00234 µM
[14] = RPMI 5 mM glucose + 10% FBS, 0.00702 µM
[15] = RPMI 5 mM glucose + 10% FBS, 0.0211 µM
[16] = RPMI 5 mM glucose + 10% FBS, 0.0632 µM
[17] = RPMI 5 mM glucose + 10% FBS, 0.19 µM
[18] = RPMI 5 mM glucose + 10% FBS, 0.569 µM
[19] = RPMI 5 mM glucose + 10% FBS, 1.71 µM
[20] = RPMI 5 mM glucose + 10% FBS, 5.12 µM
[21] = RPMI 5 mM glucose + 10% FBS, 15.4 µM
[22] = RPMI 5 mM glucose + 10% FBS, 46.1 µM
[23] = RPMI 5 mM glucose + 10% dialyzed FBS, 0.000781 µM
[24] = RPMI 5 mM glucose + 10% dialyzed FBS, 0.00234 µM
[25] = RPMI 5 mM glucose + 10% dialyzed FBS, 0.00702 µM
[26] = RPMI 5 mM glucose + 10% dialyzed FBS, 0.0211 µM
[27] = RPMI 5 mM glucose + 10% dialyzed FBS, 0.0632 µM
[28] = RPMI 5 mM glucose + 10% dialyzed FBS, 0.19 µM
[29] = RPMI 5 mM glucose + 10% dialyzed FBS, 0.569 µM
[30] = RPMI 5 mM glucose + 10% dialyzed FBS, 1.71 µM
[31] = RPMI 5 mM glucose + 10% dialyzed FBS, 5.12 µM
[32] = RPMI 5 mM glucose + 10% dialyzed FBS, 15.4 µM
[33] = RPMI 5 mM glucose + 10% dialyzed FBS, 46.1 µM

SMILES | cell viability [1] [%] | cell viability [2] [%] | cell viability [3] [%] | cell viability [4] [%] | cell viability [5] [%] | cell viability [6] [%] | cell viability [7] [%] | cell viability [8] [%] | cell viability [9] [%] | cell viability [10] [%] | cell viability [11] [%] | cell viability [12] [%] | cell viability [13] [%] | cell viability [14] [%] | cell viability [15] [%] | cell viability [16] [%] | cell viability [17] [%] | cell viability [18] [%] | cell viability [19] [%] | cell viability [20] [%] | cell viability [21] [%] | cell viability [22] [%] | cell viability [23] [%] | cell viability [24] [%] | cell viability [25] [%] | cell viability [26] [%] | cell viability [27] [%] | cell viability [28] [%] | cell viability [29] [%] | cell viability [30] [%] | cell viability [31] [%] | cell viability [32] [%] | cell viability [33] [%]
C[N+](C)([O-])CCNc1ccc(NCC[N+](C)(C)[O-])c2c1C(=O)c1c(O)ccc(O)c1C2=O | 99.5 | 98.6 | 97.6 | 103 | 100 | 90.1 | 83.2 | 63.4 | 21.8 | 28.9 | 15.2 | 101 | 101 | 92.3 | 102 | 82.7 | 72.3 | 62.9 | 42.8 | 7.99 | 13.9 | 7.05 | 84.3 | 80.9 | 95.8 | 96 | 83.7 | 79.3 | 76.2 | 44.9 | 14.8 | 23.6 | 10.6
CN(C)C[C@@H]1CC[N]2C=C(C3=C2C=CC=C3)C/4=C(/C(=O)NC4=O)C5=C[N](CCO1)C6=C5C=CC=C6 | 99.6 | 98.3 | 100 | 106 | 105 | 110 | 107 | 100 | 101 | 97.5 | 30.7 | 92.9 | 94.8 | 100 | 98.6 | 108 | 104 | 95.7 | 96.2 | 97.6 | 83.4 | 55.3 | 110 | 106 | 108 | 109 | 103 | 102 | 114 | 117 | 105 | 93.7 | 58.9
CN(C)c1ccc(Nc2nc(N)n(C(=O)c3c(F)cccc3F)n2)cc1 | 106 | 115 | 125 | 79.5 | 122 | 127 | 121 | 117 | 114 | 29.1 | 88.2 | 122 | 116 | 115 | 70 | 132 | 126 | 130 | 137 | 114 | 28.8 | 60.2 | 114 | 115 | 120 | 72.4 | 125 | 125 | 118 | 126 | 120 | 41.2 | 68.3
O=c1[nH]cnc2c1ncn2[C@H]1CC[C@@H](CO)O1 | 95.9 | 101 | 107 | 102 | 99.6 | 105 | 108 | 112 | 105 | 99.6 | 74.1 | 83.3 | 97.3 | 94.6 | 109 | 96.1 | 101 | 104 | 108 | 102 | 91.7 | 65.5 | 83.7 | 101 | 94.3 | 90.1 | 96.8 | 96.5 | 96 | 104 | 97.1 | 84 | 67.1
Cc1[nH]c(/C=C2\C(=O)Nc3ccc([S+](=O)([O-])Cc4c(Cl)cccc4Cl)cc32)c(C)c1C(=O)N1CCC[C@@H]1CN1CCCC1 | 105 | 108 | 99.7 | 101 | 98.8 | 111 | 108 | 97.9 | 91.5 | 87.4 | 78.3 | 99.4 | 103 | 105 | 99.7 | 94.6 | 95.3 | 107 | 98.4 | 81.5 | 85.5 | 84.4 | 98 | 95.8 | 93.7 | 101 | 99 | 102 | 95 | 91.6 | 69.5 | 78.1 | 53
CC(=O)O[C@@]12CO[C@@H]1C[C@H](O)[C@]3(C)[C@@H]2[C@H](OC(=O)C4=CC=CC=C4)[C@]5(O)C[C@H](OC(=O)C(O)[C@@H](NC(=O)OC(C)(C)C)C6=CC=CC=C6)C(=C(/[C@@H](O)C3=O)C5(C)C)/C (stereo not given in full) | 28 | 36.3 | 37.7 | 38 | 42.2 | 40.1 | 24.8 | 19.8 | 8.29 | 4.99 | 3.29 | 33.6 | 32.1 | 35.6 | 35.2 | 37.2 | 34.8 | 25.5 | 25.5 | 11.8 | 6.81 | 3.21 | 42.5 | 46.4 | 48.1 | 57.5 | 49.4 | 51.4 | 40.2 | 31.5 | 15.5 | 5.67 | 2.26
CC1(C)CC(O)CC(C)(C)N1[O] | 111 | 112 | 119 | 118 | 128 | 121 | 132 | 124 | 120 | 117 | 119 | 110 | 111 | 109 | 110 | 126 | 134 | 125 | 114 | 119 | 119 | 116 | 107 | 122 | 113 | 120 | 125 | 129 | 125 | 134 | 127 | 127 | 126
Cc1ncc([N+](=O)[O-])n1CCO | 116 | 121 | 126 | 125 | 118 | 123 | 120 | 132 | 124 | 110 | 123 | 106 | 115 | 123 | 127 | 112 | 112 | 127 | 124 | 123 | 116 | 120 | 121 | 129 | 122 | 129 | 135 | 135 | 127 | 125 | 131 | 129 | 128
OC(COC1=C2C(=O)\C=C(/OC2=CC=C1)C([O-])=O)COC3=C4C(=O)\C=C(/OC4=CC=C3)C([O-])=O | 84.8 | 80.9 | 87.4 | 79.2 | 90.7 | 77.2 | 88.4 | 90.1 | 92 | 86.7 | 90.4 | 98.9 | 94.9 | 97 | 94.2 | 103 | 89 | 87.3 | 89.3 | 86.9 | 83.2 | 89.5 | 75.3 | 78.4 | 84.8 | 82.1 | 83.1 | 76.7 | 81.4 | 87.8 | 73.4 | 81.3 | 80.3
Cc1c(C(=O)Nc2cccc(C(F)(F)F)c2)cc(-c2ccccc2)n1CCCN1CCOCC1 | 116 | 112 | 113 | 112 | 106 | 106 | 104 | 99.2 | 104 | 91.7 | 79.7 | 111 | 109 | 115 | 105 | 113 | 119 | 108 | 108 | 97.1 | 88 | 70.3 | 105 | 117 | 114 | 114 | 114 | 107 | 106 | 103 | 103 | 94 | 74.1
CN(C)CCCNC(=O)c1ccc(-c2cc(O)c3ncccc3c2)cc1 | 102 | 102 | 106 | 107 | 106 | 111 | 93.9 | 104 | 101 | 95.2 | 82.6 | 95.7 | 97.4 | 101 | 104 | 111 | 89.6 | 93.3 | 95.5 | 92 | 99.8 | 63.6 | 92.3 | 97.9 | 96.8 | 97.5 | 103 | 95.1 | 98.5 | 90.6 | 83.4 | 100 | 71.1
CC(C)(C)c1cc(C(=O)O)c(NC(=O)Nc2ccc3[nH]ncc3c2)s1 | 93.9 | 102 | 88.8 | 97.4 | 91.7 | 91.5 | 85.9 | 89.6 | 89.9 | 85.5 | 80.6 | 92.9 | 90.5 | 92.4 | 97.8 | 91.4 | 98.4 | 87.9 | 79.6 | 88.2 | 84.7 | 73.1 | 93.5 | 96.7 | 93 | 97.8 | 97.2 | 88.8 | 90 | 86.2 | 87.8 | 87.3 | 91
C[C@@H]1C[C@H]2[C@@H]3CC\C4=C\C(=O)\C=C/[C@]4(C)[C@@]3(Cl)[C@@H](O)C[C@]2(C)[C@@]1(OC(=O)C5=CC=CO5)C(=O)CCl | 98.5 | 93.7 | 71.9 | 66.9 | 64.6 | 64.7 | 60.8 | 61.6 | 57.9 | 40.9 | 50 | 99.2 | 97.7 | 65.4 | 54.6 | 52.1 | 49.3 | 53.7 | 51.3 | 41.6 | 32.6 | 40.2 | 93 | 84.6 | 59.1 | 50.6 | 44.1 | 46.2 | 40 | 41.2 | 35.8 | 30.2 | 30.7
CCN1C[C@]2(OC(=O)c3ccccc3NC(C)=O)CC[C@H](OC)[C@@]34[C@@H]2C[C@@H]([C@@H]13)[C@@]1(O)C[C@H](OC)[C@H]2C[C@@H]4[C@]1(O)[C@H]2OC | 91.8 | 109 | 110 | 113 | 114 | 109 | 106 | 111 | 103 | 106 | 108 | 105 | 109 | 116 | 104 | 113 | 111 | 119 | 108 | 99.1 | 105 | 114 | 103 | 111 | 115 | 110 | 117 | 106 | 115 | 110 | 104 | 107 | 102
CCCCCCCCCCCCCCCCCCOP(=O)([O-])OC1CC[N+](C)(C)CC1 | 112 | 111 | 114 | 113 | 111 | 109 | 121 | 114 | 106 | 104 | 112 | 104 | 106 | 99.9 | 87 | 107 | 111 | 113 | 124 | 103 | 105 | 95.3 | 105 | 110 | 126 | 78.2 | 111 | 110 | 115 | 121 | 110 | 105 | 113
